Assay results published in ChEMBL document CHEMBL1134487, “Design, synthesis, and biological evaluation of analogues of the antitumor agent, 2-(4-[(7-chloro-2-quinoxalinyl)oxy]phenoxy)propionic acid (XK469)” (2001).

Assays:
Mus musculus [1] = test: Cytotoxicity against sc transplanted colon-38 tumors of mouse origin, activity expressed as %T/C value at the dose of 546 mg/kg, iv; format: functional
Mus musculus [2] = test: Cytotoxicity against sc transplanted colon-51 tumors of mouse origin, activity expressed as T/C(%) at the dose of 980 mg/kg, po; format: functional
Mus musculus [3] = test: In vivo activity tested against C3H mice bearing mammary adenocarcinoma -17/ADR tumor measured as body weight loss at 620 mg/kg (po); format: functional
Mus musculus [4] = test: Cytotoxicity against sc transplanted colon-38 tumors of mouse origin, activity expressed as %body wt lose at the dose of 546 mg/kg, iv; format: functional
Mus musculus [5] = test: Cytotoxicity against sc transplanted colon-51 tumors of mouse origin, activity expressed as %body wt. loss at the dose of 980 mg/kg, po; format: functional
Mus musculus [6] = test: In vivo activity tested against C3H mice bearing mammary adenocarcinoma -17/ADR tumor measured as % treated/control calculated at 620 mg/kg (po); format: functional
Mus musculus [7] = test: Cytotoxicity against sc transplanted Mam-16/C tumors of mouse origin, activity expressed as %T/C at the dose of 525 mg/kg, iv; format: functional
Mus musculus [8] = test: Cytotoxicity against sc transplanted Mam-16/C/Taxol tumors of mouse origin, activity expressed as %T/C at the dose of 480 mg/kg, iv; format: functional
Mus musculus [9] = test: Cytotoxicity against sc transplanted Mam-17/0 tumors of mouse origin, activity expressed as T/C(%) at the dose of 620 mg/kg, iv; format: functional
Mus musculus [10] = test: Cytotoxicity against sc transplanted Panc-02 tumors of mouse origin, activity expressed as T/C(%) at the dose of 600 mg/kg, iv; format: functional
Mus musculus [11] = test: Cytotoxicity against sc transplanted Panc-03 tumors of mouse origin, activity expressed as %T/C at the dose of 328 mg/kg, po; format: functional
Mus musculus [12] = test: Cytotoxicity against sc transplanted colon-26 tumors of mouse origin, activity expressed as T/C(%) at the dose of 300 mg/kg, iv; format: functional
Mus musculus [13] = test: In vivo activity tested against C3H mice bearing mammary adenocarcinoma -17/ADR tumor measured as log Kill value was based on tumors that grew at 620 mg/kg (po); format: functional, organism-based; parameters: dose 620 mg/kg
Mus musculus [14] = test: Cytotoxicity against sc transplanted Mam-16/C/Adr tumors of mouse origin, activity expressed as […] at the dose of 400 mg/kg, iv; format: functional, organism-based; parameters: dose 400 mg/kg
Mus musculus [15] = test: Cytotoxicity against sc transplanted Mam-16/C/Taxol tumors of mouse origin, activity expressed as %log kill at the dose of 480 mg/kg, iv; format: functional, organism-based; parameters: dose 480 mg/kg
Mus musculus [16] = test: Cytotoxicity against sc transplanted Mam-17/Adr tumors of mouse origin, activity expressed as log10 Kill at the dose of 620 mg/kg, iv; format: functional, organism-based; parameters: dose 620 mg/kg
Mus musculus [17] = test: Cytotoxicity against sc transplanted Panc-02 tumors of mouse origin, activity expressed as log10 Kill at the dose of 600 mg/kg, iv; format: functional, organism-based; parameters: dose 600 mg/kg
Mus musculus [18] = test: Cytotoxicity against sc transplanted Squam-lung-LC12 tumors of mouse origin, activity expressed as log kill at the dose of 400 mg/kg, iv; All cures; format: functional, organism-based; parameters: dose 400 mg/kg
Mus musculus [19] = test: Cytotoxicity against sc transplanted colon-26 tumors of mouse origin, activity expressed as log10 Kill at the dose of 300 mg/kg, iv; format: functional, organism-based; parameters: dose 300 mg/kg
Mus musculus [20] = test: Cytotoxicity against sc transplanted Mam-17/0 tumors of mouse origin, activity expressed as cures at the dose of 620 mg/kg, iv;p 0/5 cures; format: functional
Mus musculus [21] = test: In vivo activity tested against C3H mice bearing panc-03 murine tumor measured as log Kill value was based on tumors that grew at 328 mg/kg (po); format: functional, organism-based; parameters: dose 328 mg/kg
Mus musculus [22] = test: Cytotoxicity against iv transplanted AML1498 tumors of mouse origin, activity expressed as cures at the dose of 165 mg/kg, iv; 0/5 cures; format: functional
Mus musculus [23] = test: Cytotoxicity against iv transplanted L1210 tumors of mouse origin, activity expressed as cures at the dose of 300 mg/kg, iv; 0/5 cures; format: functional
Mus musculus [24] = test: Cytotoxicity against sc transplanted DMS273 sm cell tumors of mouse and human origin, activity expressed as cures at the dose of 175 mg/kg, iv; 0/6 cures; format: functional
Mus musculus [25] = test: Cytotoxicity against sc transplanted L1210 tumors of mouse origin, activity expressed as cures at the dose of 332 mg/kg, iv; 0/5 cures; format: functional
Mus musculus [26] = test: Cytotoxicity against iv transplanted AML1498 tumors of mouse origin, activity expressed as log10 Kill at the dose of 165 mg/kg, iv; format: functional, organism-based; parameters: dose 165 mg/kg
Mus musculus [27] = test: Cytotoxicity against iv transplanted L1210 tumors of mouse origin, activity expressed as log10 Kill at the dose of 300 mg/kg, iv; format: functional, organism-based; parameters: dose 300 mg/kg
Mus musculus [28] = test: Cytotoxicity against sc transplanted DMS273 sm cell tumors of mouse and human origin, activity expressed as log10 Kill at the dose of 175 mg/kg, iv; format: functional, organism-based; parameters: dose 175 mg/kg
Mus musculus [29] = test: Cytotoxicity against iv transplanted AML1498 tumors of mouse origin, activity expressed as %body wt. loss at the dose of 165 mg/kg, iv; format: functional
Mus musculus [30] = test: Cytotoxicity against sc transplanted B-16 melanoma tumors of mouse origin, activity expressed as %body wt. loss at the dose of 300 mg/kg, iv; format: functional
Mus musculus [31] = test: Cytotoxicity against sc transplanted DMS273 sm cell tumors of mouse and human origin, activity expressed as %body wt. loss at the dose of 175 mg/kg, iv; format: functional
Mus musculus [32] = test: Cytotoxicity against sc transplanted colon-38 tumors of mouse origin, activity expressed as cures at the dose of 546 mg/kg, iv; 3/5 cures; format: functional
Mus musculus [33] = test: Cytotoxicity against sc transplanted colon-51 tumors of mouse origin, activity expressed as cures at the dose of 980 mg/kg, po; 1/5 cures; format: functional
Mus musculus [34] = test: In vivo activity tested against C3H mice bearing panc-03 murine tumor, measured as cures at 328 mg/kg (po); 4/6 cures; format: functional
Mus musculus [35] = test: Cytotoxicity against sc transplanted Mam-16/C/Adr tumors of mouse origin, activity expressed as %body wt. loss at the dose of 400 mg/kg, iv; format: functional
Mus musculus [36] = test: Cytotoxicity against sc transplanted Mam-16/C/Taxol tumors of mouse origin, activity expressed as %body wt. loss at the dose of 480 mg/kg, iv; format: functional
Mus musculus [37] = test: Cytotoxicity against sc transplanted Mam-17/Adr tumors of mouse origin, activity expressed as %body wt. loss at the dose of 620 mg/kg, iv; format: functional
Mus musculus [38] = test: Cytotoxicity against sc transplanted Panc-03 tumors of mouse […] origin, activity expressed as %body wt loss at the dose of 328 mg/kg, po; format: functional
Mus musculus [39] = test: Cytotoxicity against sc transplanted Squam-lung-LC12 tumors of mouse, activity expressed as %body wt loss at the dose of 400 mg/kg, iv; format: functional
Mus musculus [40] = test: Cytotoxicity against sc transplanted B-16 melanoma tumors of mouse origin, activity expressed as cures at the dose of 300 mg/kg, iv; 0/5 cures; format: functional

CC(Oc1ccc(Oc2cnc3ccc(Cl)cc3n2)cc1)C(=O)O (stereo not given)
T/C (Mus musculus [1]): 0% | T/C (Mus musculus [2]): 0% | Body weight loss (Mus musculus [3]): -4% | Body weight loss (Mus musculus [4]): -3.5% | Body weight loss (Mus musculus [5]): -5% | T/C (Mus musculus [6]): 2% | T/C (Mus musculus [7]): 0% | T/C (Mus musculus [8]): 14% | T/C (Mus musculus [9]): 10% | T/C (Mus musculus [10]): 9% | T/C (Mus musculus [11]): 0% | T/C (Mus musculus [12]): 14% | Log kill (Mus musculus [13]): 3.9 | Log kill (Mus musculus [14]): 4.1 | Log kill (Mus musculus [15]): 2.7 | Log kill (Mus musculus [16]): 3.9 | Log kill (Mus musculus [17]): 2.8 | Log kill (Mus musculus [18]): All cures | Log kill (Mus musculus [19]): 1.3 | Cures (Mus musculus [20]): 0 | Log kill (Mus musculus [21]): 2.1 | Cures (Mus musculus [22]): 0 | Cures (Mus musculus [23]): 0 | Cures (Mus musculus [24]): 0 | Cures (Mus musculus [25]): 0 | Log kill (Mus musculus [26]): 2 | Log kill (Mus musculus [27]): 6.4 | Log kill (Mus musculus [28]): 1.6 | Body weight loss (Mus musculus [29]): -7% | Body weight loss (Mus musculus [30]): -11% | Body weight loss (Mus musculus [31]): -8% | Cures (Mus musculus [32]): 3 | Cures (Mus musculus [33]): 1 | Cures (Mus musculus [34]): 4 | Body weight loss (Mus musculus [35]): -9% | Body weight loss (Mus musculus [36]): -11% | Body weight loss (Mus musculus [37]): -4% | Body weight loss (Mus musculus [38]): -4% | Body weight loss (Mus musculus [39]): -3% | Cures (Mus musculus [40]): 0
